The record followed here is patent EP0450761A1, “Spirocyclic oxytocin antagonists” (MERCK & CO. INC., priority 1990, dated 1991).

The target in one test is T1, AVP-V₁ sites (Rattus norvegicus, UniProt P30560).
T1 construct: a crude membrane preparation of male rat liver (AVP-V₁ sites); from tissue; host or cells: male rat liver, crude membrane preparation
Kind of test: [³H]AVP radioligand binding, crude membrane preparation of male rat liver (AVP-V₁ sites). To be noted: for inhibition at 10 µM: 10 µM test compound, % of specific [³H]AVP binding inhibited (liver), read-out: Inhibition Vasopressin V1 % inhibition @ 10; for IC50: 1 nM [³H]AVP, rat liver membranes, 30 min at 30°C, read-out: Inhibition Vasopressin V1 IC50. From the text: (§1) *Inhibition is expressed either as IC₅₀ in µM, or as % inhibition @ a specified concentration of the test compound (µM). The IC₅₀ is the concentration of the text compound which inhibits specific binding by 50%. The % inhibition at a specified concentration of the test compound is that percentage of specific binding which is inhibited by said concentration of said test compound.

In another test the target is T2, AVP-V₂ sites (Rattus norvegicus, UniProt Q00788).
T2 construct: male rat liver (AVP-V₁ sites) or kidney medulla (AVP-V₂ sites); from tissue; host or cells: male rat kidney medulla, crude membrane preparation
T2 sequence (Q00788 whole entry): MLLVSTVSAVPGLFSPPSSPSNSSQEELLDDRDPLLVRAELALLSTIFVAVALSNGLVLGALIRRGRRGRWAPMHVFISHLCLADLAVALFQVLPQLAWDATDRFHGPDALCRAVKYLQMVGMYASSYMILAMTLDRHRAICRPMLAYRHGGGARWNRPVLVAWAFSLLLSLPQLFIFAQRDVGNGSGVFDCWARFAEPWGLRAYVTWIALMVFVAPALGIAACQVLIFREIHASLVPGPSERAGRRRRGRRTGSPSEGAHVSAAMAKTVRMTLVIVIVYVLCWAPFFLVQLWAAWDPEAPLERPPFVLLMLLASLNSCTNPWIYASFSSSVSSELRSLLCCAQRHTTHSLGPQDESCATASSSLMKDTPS
Kind of test: [³H]AVP radioligand binding, crude membrane preparation of male rat kidney medulla (AVP-V₂ sites). To be noted: for inhibition at 10 µM: 10 µM test compound, % of specific [³H]AVP binding inhibited (kidney), read-out: Inhibition Vasopressin V2 % inhibition @ 10.
Source text: as §1

For another test, the target named is T3, uterine OT receptors (Rattus norvegicus, UniProt P70536).
T3 construct: a crude membrane preparation of uteri; from tissue; host or cells: uterus of DES-treated rats, crude membrane preparation
T3 sequence (P70536 1-388): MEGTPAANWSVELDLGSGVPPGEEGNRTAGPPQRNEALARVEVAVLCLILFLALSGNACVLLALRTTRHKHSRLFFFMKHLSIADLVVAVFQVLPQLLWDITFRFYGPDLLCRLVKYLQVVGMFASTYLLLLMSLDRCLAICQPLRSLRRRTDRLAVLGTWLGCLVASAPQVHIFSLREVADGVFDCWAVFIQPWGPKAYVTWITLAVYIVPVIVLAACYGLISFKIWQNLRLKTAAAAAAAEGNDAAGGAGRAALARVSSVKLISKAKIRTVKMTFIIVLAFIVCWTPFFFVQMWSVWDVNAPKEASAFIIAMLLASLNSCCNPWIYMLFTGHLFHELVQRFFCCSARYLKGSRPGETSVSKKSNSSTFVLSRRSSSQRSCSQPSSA
Kind of test: [³H]OT radioligand binding to uterine OT receptors, crude membrane preparation of uteri from DES-treated rats. The protocol: Competition studies were conducted at equilibrium (60 min; 22°C) using 1 nM [³H]OT in the following assay buffer: 50 mM Tris-HCl, 5 mM MgCl₂, and 0.1% BSA, pH 7.4.
as §1

T1 sequence (P30560 whole entry): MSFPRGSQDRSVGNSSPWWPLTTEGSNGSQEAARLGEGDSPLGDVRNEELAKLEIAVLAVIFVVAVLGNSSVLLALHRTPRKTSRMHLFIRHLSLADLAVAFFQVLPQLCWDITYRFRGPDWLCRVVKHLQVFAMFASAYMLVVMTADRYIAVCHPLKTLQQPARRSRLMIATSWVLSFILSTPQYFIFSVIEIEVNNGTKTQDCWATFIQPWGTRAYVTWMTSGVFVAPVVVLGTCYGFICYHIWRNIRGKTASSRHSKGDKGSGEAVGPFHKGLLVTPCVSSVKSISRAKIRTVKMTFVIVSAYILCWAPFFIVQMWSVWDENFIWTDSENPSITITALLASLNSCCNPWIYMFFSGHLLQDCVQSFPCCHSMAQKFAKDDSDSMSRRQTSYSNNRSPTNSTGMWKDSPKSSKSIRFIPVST

The term inhibition denotes the percentage by which the read-out fell short of the control. For `CC1(C)[C@@H]2CC[C@@]1(CS(=O)(=O)N1CCC3(C=Cc4ccccc43)CC1)C(=O)C2` [Example 6], the inhibition at 10 µM on AVP-V₁ sites is 2%; at AVP-V₂ sites it was 3%.

Consider `CC1(C)[C@H]2CC[C@]1(CS(=O)(=O)N1CCC3(C=Cc4ccccc43)CC1)C(=O)C2` [Example 7], for which the results for the inhibition at 10 µM at AVP-V₁ sites and on AVP-V₂ sites were 0% and 6%, respectively.

Broadly, the IC50 is the concentration at which inhibition is half-maximal. On uterine OT receptors, `CC1(C)[C@@H]2CC[C@@]1(CS(=O)(=O)N1CCC3(C=Cc4ccccc43)CC1)C(O)(c1ccccc1)C2` (stereo partly drawn) [Example 11] gave an IC50 of 490 nM.

Turning to `CC1(C)[C@@H]2CC[C@@]1(CS(=O)(=O)N1CCC3(C=Cc4ccccc43)CC1)[C@](C)(O)C2` [Example 13, EXO-(1S)-1′-(((2-HYDROXY-2,7,7-TRIMETHYLBICYCLO-(2.2.1)HEPT-1-YL)METHYL)SULFONYL)SPIRO(1H-INDENE-1,4′-PIPERIDINE)], the values for the inhibition at 10 µM on AVP-V₁ sites and at AVP-V₂ sites were 45% and 5%, respectively.

As for `CCC1(O)CC2CC[C@]1(CS(=O)(=O)N1CCC3(C=Cc4ccccc43)CC1)C2(C)C` (stereo partly drawn) [Example 15], the IC50 is around 9000 nM on AVP-V₁ sites and 470 nM on uterine OT receptors.

As for `COC(=O)C[C@@]1(O)C[C@H]2CC[C@]1(CS(=O)(=O)N1CCC3(C=Cc4ccccc43)CC1)C2(C)C` [Example 19, (1S(1.ALPHA.,2.ALPHA.,4.ALPHA.))-2-HYDROXY-7,7-DIMETHYL-1-((SPIRO(1H-INDENE-1,4′-PIPERIDIN)-1′-YLSULFONYL)METHYL)BICYCLO(2.2.1)HEPTANE-2-ACETIC ACID METHYL ESTER], the inhibition at 10 µM at AVP-V₁ sites turned out to be 54%; on AVP-V₂ sites, 20%.

In the case of `CC1(C)[C@@H]2CC[C@@]1(CS(=O)(=O)N1CCC3(C=Cc4ccccc43)CC1)[C@@](O)(CC(=O)O)C2` [Example 20, (1S(1.ALPHA.,2.ALPHA.,4.ALPHA.))-2-HYDROXY-7,7-DIMETHYL-1-((SPIRO(1H-INDENE-1,4′-PIPERIDIN)-1′-YLSULFONYL)METHYL)-BICYCLO-(2.2.1)HEPTANE-2-ACETIC ACID], the half-inhibitory concentration (IC50) on AVP-V₁ sites was determined as 89000 nM; at uterine OT receptors, 570 nM; at AVP-V₂ sites (2 nM [³H]AVP, rat kidney medulla membranes, 30 min at 30°C, read-out: Inhibition Vasopressin V2 IC50) it was 83000 nM.

Consider `CC1(C)[C@@H]2CC[C@@]1(CS(=O)(=O)N1CCC3(C=Cc4ccccc43)CC1)C(=NO)C2` [Example 27], for which the inhibition at 10 µM at AVP-V₁ sites came out at 52%; at AVP-V₂ sites, 21%. The IC50 on uterine OT receptors worked out at 490 nM.

For the molecule [³H]OT [reference compound], the Kd in the test with uterine OT receptors (radioligand, uterus, read-out: Kd values obtained from saturation binding assay) came to 0.7 nM.
